# Laboratory results from patent publication US20240369576A1, “ASSAYS FOR ALPHA-DYSTROGLYCAN GLYCOSYLATION AND METHODS FOR USING SAME” (ML Bio Solutions Inc., priority 2023, published 2024).
# Entries after “also recorded” stand apart in the source; their conditions may differ.
# How the values were obtained:
# [1] = tested on: αDG glycosylation in P448L mutant FKRP mice; experiment: Multiplexed Western blot of total and glycosylated αDG in muscle of P448L mutant FKRP mice treated with 5% Ribitol; assay type: in vivo, mouse; conditions: 5% Ribitol treated P448L mice vs untreated P448L mice, heart muscle and TA lysates
# Description: Murine Mouse Tissue: Murine muscle tissue samples from healthy, [MUT], and […] mutant mice were stored at -80° C. until analysis. Tissue Processing: Tissue samples were processed using a TissueLyzer IITM (Qiagen®). Approximately 250 milligrams (mg) of tissue was placed in a 2 mL microtube with a steel bead and 1 mL of Radioimmunoprecipitation assay buffer (RIPA) buffer supplemented with protease and phosphatase inhibitors. The microtubes were subjected to three cycles of disruption (2 minutes at 25 Hertz (Hz)) in the TissueLyzer IITM. Lysates were clarified by centrifugation and the supernatant was transferred to fresh tubes and protein concentration in lysate was determined using a BCA assay (Pierce®). […] The membrane was visualized on an Odyssey CLxTM imager (LiCorTM) and intensities of the 700 and 800 nm channels were recorded. […] Signal intensities were normalized to total protein and the ratio of 700 nm normalized signal/800 nm normalized signal was determined. Linear fits were assessed where applicable using the linear regression function of PrismTM. Statistical significance was determined using an unpaired t-test using PrismTM (e.g., using the p-value for the parameters slope and intercept). StainFree gel image is quantitated using ImageLabTM software to analyze the image from the ChemiDocTM Imaging System. […] Linear fits were assessed were applicable using a linear regression function. […]
# [2] = tested on: serum creatine kinase (CK); experiment: Open label Phase 2 study of ribitol in LGMD2I/R9: serum creatine kinase; assay type: in vivo, human
# Description: (§1) Methods: This study is an open label dose escalation study of patients with LGMD2I/R9. Part 1 of the study involved three dose cohorts (6 g QD, 6 g BID and 12 g BID) treated for 3 months. During Parts 2 (target maximal dose) and 3 (ongoing OLE), all patients received 12 g BID, dose adjusted for lower weight. FIG. 17 schematically illustrates the details of the clinical study. Briefly, the study includes 3 parts: a 90 day dose escalation phase (Part 1), a 90 day maximum dose phase (Part 2), and a 24 month long term extension phase (Part 3). In Part 1, 14 total patients are studied across three cohorts (6 g QD, 6 g BID, and 12 g BID ribitol). After Part 1, all patients transition to the highest dose, 12 g BID ribitol. Dosing adjustments in Part 2 were as follows: for patients with weight >70 kg: 12 g BID; for patients with weight between 50-70 kg: 9 g BID; and for patients with weight between 30-50 kg: 6 g BID. Dosing adjustments in Part 3 were as follows: for patients with weight >50 kg: 12 g BID; and for patients with weight between 30-50 kg: 9 g BID. Key endpoints for the study include NSAD; 10 or 100 meter walk test; FVC; PUL2.0; glycosylated αDG levels; and serum creatine kinase (CK).
# patients with LGMD2I/R9 [3] = experiment: Open label Phase 2 study of ribitol in LGMD2I/R9: safety and tolerability; assay type: in vivo, human
# Description: Objectives: The Phase 2 study is intended to explore the safety and tolerability of ribitol. Additionally, the feasibility and usefulness of clinical efficacy and pharmacodynamic (PD) assessments in patients with LGMD2I receiving ascending doses of ribitol will be investigated.
# Methods: This study is an open label dose escalation study of patients with LGMD2I/R9. Part 1 of the study involved three dose cohorts (6 g QD, 6 g BID and 12 g BID) treated for 3 months. During Parts 2 (target maximal dose) and 3 (ongoing OLE), all patients received 12 g BID, dose adjusted for lower weight.
# FIG. 17 schematically illustrates the details of the clinical study. Briefly, the study includes 3 parts: a 90 day dose escalation phase (Part 1), a 90 day maximum dose phase (Part 2), and a 24 month long term extension phase (Part 3). In Part 1, 14 total patients are studied across three cohorts (6 g QD, 6 g BID, and 12 g BID ribitol). After Part 1, all patients transition to the highest dose, 12 g BID ribitol. Dosing adjustments in Part 2 were as follows: for patients with weight >70 kg: 12 g BID; for patients with weight between 50-70 kg: 9 g BID; and for patients with weight between 30-50 kg: 6 g BID. Dosing adjustments in Part 3 were as follows: for patients with weight >50 kg: 12 g BID; and for patients with weight between 30-50 kg: 9 g BID.
# Key inclusion criteria for the study include age between 12-55 years at enrollment; genetically confirmed LGMD2I/R9 diagnosis; body weight of at least 30 kg; and ability to complete a […] walk test in <12 seconds unaided for moderate disease, or unable to complete the 10MWT for severe disease.
# [4] = tested on: alpha-DG glycosylation in LGMD2I mouse models; conditions: cited from earlier work
# patients with LGMD2I/R9 [5] = experiment: Open label Phase 2 study of ribitol in LGMD2I/R9: ambulatory and clinical measures (NSAD, 10MWT, 100MTT); assay type: in vivo, human; conditions: following 15 months of ribitol treatment, vs natural history decline
# Description: as §1, with “Key inclusion criteria for the study include age between 12-55 years at enrollment; genetically confirmed LGMD2I/R9 diagnosis; body weight of at least 30 kg; and ability to complete a […] walk test in <12 seconds unaided for moderate disease, or unable to complete the 10MWT for severe disease. Key” for “Key”
# glycosylated αDG = experiment: Open label Phase 2 study of ribitol in LGMD2I/R9: glycosylated αDG in tibialis anterior biopsies by Western blot; assay type: in vivo, human
# Description: Tissue Lysis and sample preparation: Tissue samples were processed in lysis buffer, supplemented with protease inhibitors. Total protein in lysate was determined by BCA (Thermo Fisher) for RIPA and protein 660 kit (Thermo Fisher) for SDS-Urea and tested at 60 μg for CP Heterozygous samples and 40 μg for Homozygous samples. Differential protein loading is used for different patients to compensate for patient deficits in glycosylated αDG. […] Loading additional protein helps compensate for this deficiency and allows the assay to detect lower-level ranges. This is further stratified by patient genotype: more severe patients require greater protein loading. Western Blotting: For detection of target proteins αDG-Total and αDG-Glycan, membrane was probed simultaneously with primary antibodies AF6868 alpha Dystroglycan (R&D Systems) and IIH6C4 alpha Dystroglycan (Millipore), followed by fluorescent secondary antibodies IR800CW Mouse Anti-Sheep and IR680 Goat Anti-Mouse secondary antibodies (LiCor). The membrane was visualized in Odyssey CLx imager (LiCor) and intensities of the 700 (αDG-Glycan, red bands) and 800 (αDG-Total, green bands) nm channels were recorded. […] Here, amounts of glycosylated and total αDG are determined using standard curves, and an interpolated ratio is computed by dividing the amount of glycosylated αDG to the amount of total αDG. Data Analysis: Integration boxes were drawn using Image Studio software with specific dimensions over molecular weight range for standards, test articles and control samples. Data analysis was done in Excel (Microsoft). […] Healthy positive control (HPC) at 10 μg was deployed to monitor assay performance. […] FIG. 12 schematically illustrates a workflow for the Western Blot method. Briefly, biopsies are collected from a subject at a desired timepoint and homogenized. Gel electrophoresis is performed, followed by membrane transfer and blocking. Sample is incubated with the primary antibody followed by the secondary antibody. Detection and analysis are subsequently performed. […] A broader region of 70-260 kDa was used in prior iterations of the assay, including that described in Example 2 herein. […] Multiple sections of a single healthy donor TA biopsy sample are homogenized and the resulting lysate is pooled together and stored in single use aliquots at −80° C. These aliquots are used to generate a standard curve which is used in every assay. In addition, a quality control of 10 μg lysate is used to assess assay performance by measuring interpolatability to the standard curve. Methods: This study is an open label dose escalation study of patients with LGMD2I/R9. Part 1 of the study involved three dose cohorts (6 g QD, 6 g BID and 12 g BID) treated for 3 months. During Parts 2 (target maximal dose) and 3 (ongoing OLE), all patients received 12 g BID, dose adjusted for lower weight. FIG. 17 schematically illustrates the details of the clinical study. Briefly, the study includes 3 parts: a 90 day dose escalation phase (Part 1), a 90 day maximum dose phase (Part 2), and a 24 month long term extension phase (Part 3). In Part 1, 14 total patients are studied across three cohorts (6 g QD, 6 g BID, and 12 g BID ribitol). After Part 1, all patients transition to the highest dose, 12 g BID ribitol. Dosing adjustments in Part 2 were as follows: for patients with weight >70 kg: 12 g BID; for patients with weight between 50-70 kg: 9 g BID; and for patients with weight between 30-50 kg: 6 g BID.
# [6] = maximum change over 3-15 months of treatment, FIG. 19
structure (smiles),measurement,setting,value
"OC[C@@H](O)[C@@H](O)[C@@H](O)CO [ribitol, (2R,3S,4S)-Pentane-1,2,3,4,5-pentol]","αDG expression (total αDG signal, ~50-250 kDa)",[1]; FIG. 6B,increased
same,ratio of glycosylated αDG to total αDG,[1]; FIG. 6C,increased
same,change in serum CK,"[2]; after 3 months of treatment, FIG. 20",notable change
same,sustained reduction in serum creatine kinase (CK),[2]; over 15 months of ribitol treatment,> 75%
same,adverse events leading to discontinuation or interruption in therapy,patients with LGMD2I/R9 [3]; 15 months of treatment,No adverse event led to a discontinuation or interruption in therapy
same,"diarrhea, possibly or probably treatment-related","patients with LGMD2I/R9 [3]; 75% grade 1, 25% grade 2",6 incidents
same,"treatment-related serious adverse events, dose limiting toxicities or discontinuations",patients with LGMD2I/R9 [3]; across a range of ribitol dose levels,"no observed treatment-related serious adverse events, dose limiting toxicities or discontinuations"
same,"nausea, possibly or probably treatment-related",patients with LGMD2I/R9 [3]; both grade 1,2 incidents
same,"vomiting, possibly or probably treatment-related",patients with LGMD2I/R9 [3]; both grade 1,2 incidents
same,adverse events possibly or probably related to ribitol treatment,patients with LGMD2I/R9 [3]; during the course of the study,12
same,adverse events recorded,"patients with LGMD2I/R9 [3]; during the course of the study, 14 patients",136
same,"dehydration, possibly or probably treatment-related",patients with LGMD2I/R9 [3]; grade 1,1 incident
same,"dyspepsia, possibly or probably treatment-related",patients with LGMD2I/R9 [3]; grade 1,1 incident
same,"gastroenteritis, possibly or probably treatment-related",patients with LGMD2I/R9 [3]; grade 2,1 incident
same,"headaches, possibly or probably treatment-related",patients with LGMD2I/R9 [3]; grade 2,1 incident
same,tolerability,patients with LGMD2I/R9 [3]; over 15 months of treatment,well-tolerated; also recorded: well tolerated
same,severe adverse events,patients with LGMD2I/R9 [3]; unrelated to the treatment,3
same,alpha-DG glycosylation,[4],increase
same,10MWT velocity,patients with LGMD2I/R9 [5],improvements
same,100MTT,patients with LGMD2I/R9 [5],improvements
same,NSAD,patients with LGMD2I/R9 [5],improvements
same,10MWT velocity,patients with LGMD2I/R9 [5]; listed as Ribitol,improvement
same,100MTT,patients with LGMD2I/R9 [5]; listed as Ribitol,improvement
same,NSAD,patients with LGMD2I/R9 [5]; listed as Ribitol,improvement
same,change in glycosylated αDG vs baseline,"glycosylated αDG; LGMD2I/R9 patients, oral ribitol 6 g QD to 12 g BID, after 90 days, sustained over 15 months",approximate doubling; also recorded: approximately double
same,levels of glycosylated αDG at 3 months,"glycosylated αDG; Phase 2, 3 months, sustained over 15 months",increased
same,change in glycosylated αDG by genotype,glycosylated αDG; both L276I homozygous and other FKRP genotype LGMD2I/R9 patients,Approximate doubling
same,patients with a ≥100% increase (doubling) in glycosylated αDG levels vs pre-treatment,glycosylated αDG; [6],10 of 14
same,patients with increased glycosylated αDG levels vs pre-treatment baseline,glycosylated αDG; [6],13 of 14
same,αDG glycosylation in LGMD2I/R9 muscle biopsies,"glycosylated αDG; treatment with ribitol, FIGS. 13A-13B",dramatically increases
